Values of other authors as cited in US10813968B2, “Method of treating a human suffering from post exercise muscle soreness” (Provexis Natural Products Limited, priority 2012, dated 2020).

Conditions: 3 hours after supplementation supplying 200 μg folic acid

typical plasma folate concentration: 5 ng/mL
Structure (SMILES): Nc1nc2ncc(CNc3ccc(C(=O)N[C@@H](CCC(=O)O)C(=O)O)cc3)nc2c(=O)[nH]1 [folic acid]
